Consider 40 compounds from patent US20230098332A1, “HETEROCYCLIC DERIVATIVES AS TRMP8 ANTAGONISTS” (Givaudan SA, priority 2020, published 2023).

Structures can show the parent of a compound that is named as a salt. Where only a bound is given, the exact number is not on record here.

The assay concerns the target T1, hTRPM8 (Homo sapiens, UniProt Q7Z2W7).
T1 construct: expressed in transfected cells
Briefly: Assay on TRPM8 modulators: calcium imaging (Fluo-4, Flexstation) in HEK293 cell line stably expressing hTRPM8. Format: cell-based. Conditions: TRPM8 agonist activity, calcium influx, HEK293 stably expressing hTRPM8, sigmoidal dose-response fit. On the procedure: A HEK293 cell line stably expressing hTRPM8 was generated according to Klein et al., (Chem. Senses 36: 649-658, 2011) and receptor activation was monitored by calcium imaging in a Flexstation. For Ca-imaging assays of TRPM8 channel activation, cells were seeded on day 0 at a density of 12000 cells per well in Dulbecco's modified Eagle medium (DMEM) containing 9% foetal bovine serum in black, clear bottom 96-well plates that had been coated with 0.001% polyethyleneimine (molecular weight=60 000, Acros Organics). On day 2, agonists were evaluated via calcium imaging using Fluo-4. Briefly, growth medium was discarded, and the cells were incubated in the dark for 1 h at 37° C. in 50 μL loading buffer consisting of 2.7 μM Fluo-4 AM (Invitrogen) and […] probenecid (Sigma-Aldrich) in DMEM (without serum). After incubation, the plates were washed five times with 100 μL of assay buffer (in mM: 130 NaCl, 5 KCl, 10 HEPES, 2 CaCl2, and 10 glucose, pH7.4.) and further incubated in the dark at room temperature for 30 min. The cells were then washed five times with 100 μL assay buffer and then calcium influx to serial dilutions of inventive compounds were measured in a Flexstation 3 (Molecular Devices). Receptor activation was initiated following addition of 20 μl of a 10-fold concentrated ligand stock solution, which is also prepared in assay buffer. Fluorescence was continuously monitored for 15 seconds prior to ligand addition and for 105 seconds after ligand addition, for a total of 120 seconds. Maximal receptor activation in relation to solvent control and relative to 31.6 μM menthol is determined. Data from serial dilutions were processed with a KNIME workflow to fit a sigmoidal dose-response curve and to extrapolate EC50 values.

T1 sequence (Q7Z2W7 whole entry): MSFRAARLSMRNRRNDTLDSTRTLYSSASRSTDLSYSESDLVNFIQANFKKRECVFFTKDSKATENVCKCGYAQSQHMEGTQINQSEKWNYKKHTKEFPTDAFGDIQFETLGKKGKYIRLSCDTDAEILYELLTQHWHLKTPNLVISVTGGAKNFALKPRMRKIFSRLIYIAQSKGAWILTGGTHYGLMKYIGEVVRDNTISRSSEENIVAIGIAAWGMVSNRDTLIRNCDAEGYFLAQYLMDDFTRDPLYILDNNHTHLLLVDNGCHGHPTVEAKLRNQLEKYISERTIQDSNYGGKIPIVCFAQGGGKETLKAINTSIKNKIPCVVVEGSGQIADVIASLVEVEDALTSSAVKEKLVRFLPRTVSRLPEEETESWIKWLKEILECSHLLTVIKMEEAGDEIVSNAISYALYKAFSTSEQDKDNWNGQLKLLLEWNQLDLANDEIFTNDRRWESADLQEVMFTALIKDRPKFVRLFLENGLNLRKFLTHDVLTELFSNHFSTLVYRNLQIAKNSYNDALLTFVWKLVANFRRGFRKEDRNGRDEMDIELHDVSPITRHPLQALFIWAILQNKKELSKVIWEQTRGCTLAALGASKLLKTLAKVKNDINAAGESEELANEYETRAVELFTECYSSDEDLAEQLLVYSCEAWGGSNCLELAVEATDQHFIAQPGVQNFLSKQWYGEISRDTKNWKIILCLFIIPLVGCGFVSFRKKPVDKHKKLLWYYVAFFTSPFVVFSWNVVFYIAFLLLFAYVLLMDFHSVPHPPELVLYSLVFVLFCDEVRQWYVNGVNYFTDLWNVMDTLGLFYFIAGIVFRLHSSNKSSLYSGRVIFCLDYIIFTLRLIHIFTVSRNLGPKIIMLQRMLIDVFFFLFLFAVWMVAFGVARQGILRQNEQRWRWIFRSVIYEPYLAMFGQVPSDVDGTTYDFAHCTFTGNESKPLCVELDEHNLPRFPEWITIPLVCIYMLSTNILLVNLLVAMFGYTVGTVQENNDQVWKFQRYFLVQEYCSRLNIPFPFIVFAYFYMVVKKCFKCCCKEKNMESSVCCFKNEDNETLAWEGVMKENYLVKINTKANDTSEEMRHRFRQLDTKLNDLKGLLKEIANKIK

As for `Cc1cc(C)c(OCCN2CCOCC2)c(Cc2ccccc2CC#N)c1` [compound 108, 2-(2-(3,5-dimethyl-2-(2-morpholinoethoxy)benzyl)phenyl)acetonitrile], the EC50 lay in the range of 50 to 300 nM. For the compound `Cc1cc(C)c(OCCN2CCN(C)CC2)c(Cc2cccc(Br)c2)c1` [compound 58, 1-(2-(2-(3-bromobenzyl)-4,6-dimethylphenoxy)ethyl)-4-methylpiperazine], the EC50 fell in the range of 1000 to 35000 nM. For `Cc1cc(C)c(OCCN2CCN(C)CC2)c(Cc2ccccc2Br)c1` [compound 54, 1-(2-(2-(2-bromobenzyl)-4,6-dimethylphenoxy)ethyl)-4-methylpiperazine], the EC50 was in the range of 300 to 1000 nM. As to `Cc1cc(C)c(OCCN2CCN(C)CC2)c(Cc2ccncc2)c1` [compound 65, 1-(2-(2,4-dimethyl-6-(pyridin-4-ylmethyl)phenoxy)ethyl)-4-methylpiperazine], the EC50 lay within 1000 to 35000 nM. Take `Cc1ccc(OC(=O)CN2CCN(C)CC2)c(Cc2ccccc2)c1` [compound 136, 2-benzyl-4-methylphenyl 2-(4-methylpiperazin-1-yl)acetate]: the EC50 is 1000 to 35000 nM. With `Cc1ccc(NCCN2CCOCC2)c(Cc2c(F)cccc2F)c1` [compound 110, 2-(2,6-difluorobenzyl)-4-methyl-N-(2-morpholinoethyl)aniline] the figure was 300 to 1000 nM; with `Cc1ccc(OCCN2CC[S+]([O-])CC2)c(Cc2ccccc2)c1` [compound 160, 4-(2-(2-benzyl-4-methylphenoxy)ethyl)thiomorpholine 1-oxide], 1000 to 35000 nM. The value for `Cc1ccc(OCCN2CCN(C)CC2)c(Cc2ccccc2Cl)c1` [compound 55, 1-(2-(2-(2-chlorobenzyl)-4-methylphenoxy)ethyl)-4-methylpiperazine] was 50 to 300 nM. The value for `Cc1cc(C)c(OCCN2CCOCC2)c(Cc2c(Br)cccc2C#N)c1` [compound 141, 3-bromo-2-(3,5-dimethyl-2-(2-morpholinoethoxy)benzyl)benzonitrile] was 300 to 1000 nM; that for `Cc1ccc(C)c(OCCN2CCN(C)CC2)c1Cc1ccccc1` [compound 66, 1-(2-(2-benzyl-3,6-dimethylphenoxy)ethyl)-4-methylpiperazine] was 1000 to 35000 nM.

As to `Cc1ccc(NCCN2CCN(C)CC2)c(Cc2ccccc2)c1` [compound 135, 2-benzyl-4-methyl-N-(2-(4-methylpiperazin-1-yl)ethyl)aniline], the EC50 is 1000 to 35000 nM.

Consider `Cc1cc(C)c(OCCN2CCOCC2)c(Cc2ccccc2[N+](=O)[O-])c1` [compound 157, 4-(2-(2,4-dimethyl-6-(2-nitrobenzyl)phenoxy)ethyl)morpholine], for which the EC50 is 300 to 1000 nM.

As for `COC(=O)c1ccc(OCCN2CCN(C)CC2)c(Cc2ccccc2)c1` [compound 165, methyl 3-benzyl-4-(2-(4-methylpiperazin-1-yl)ethoxy)benzoate], the EC50 is 1000 to 35000 nM. In the case of `Cc1cc(C)c(OCCN2CCOCC2)c(Cc2ccccc2N)c1` [compound 121, 2-(3,5-dimethyl-2-(2-morpholinoethoxy)benzyl)aniline], the concentration for a half-maximal effect (EC50) was in the range of 1000 to 35000 nM. For the compound `COc1cccc(OCCN2CCN(C)CC2)c1Cc1ccccc1` [compound 67, 1-(2-(2-benzyl-3-methoxyphenoxy)ethyl)-4-methylpiperazine], the EC50 lay in the range of 1000 to 35000 nM. With `Cc1ccc(OCCN2CCN(C)CC2)c(/C=C2\CCCCC2=O)c1` [compound 46, (E)-2-(5-methyl-2-(2-(4-methylpiperazin-1-yl)ethoxy)benzylidene)cyclohexan-1-one], the EC50 was in the range of 300 to 1000 nM. Regarding `Cc1cc(C)c(OCCN2CCOCC2)c(C(C)c2ccccc2F)c1` (stereo not shown) [compound 144, 4-(2-(2-(1-(2-fluorophenyl)ethyl)-4,6-dimethylphenoxy)ethyl)morpholine], the EC50 was in the range of 300 to 1000 nM. As for `Cc1cc(C)c(OCCN2CCN(C)CC2)c(Cc2ccccn2)c1` [compound 63, 1-(2-(2,4-dimethyl-6-(pyridin-2-ylmethyl)phenoxy)ethyl)-4-methylpiperazine], the EC50 fell in the range of 1000 to 35000 nM.

`Cc1cc(C)c(OCCN2CCN(C)CC2)c(Cc2cccc(C#N)c2)c1` [compound 139, 3-(3,5-dimethyl-2-(2-(4-methylpiperazin-1-yl)ethoxy)benzyl)benzonitrile dihydrochloride]: the EC50 was in the range of 1000 to 35000 nM. With `Cc1ccc(CCCN2CCN(C)CC2)c(Oc2ccccc2C#N)c1` [compound 133, 2-(5-methyl-2-(3-(4-methylpiperazin-1-yl)propyl)phenoxy)benzonitrile] the figure was 50 to 300 nM; with `Cc1cc(C)c(N(C)CCN2CCOCC2)c(Cc2ccccc2C#N)c1` [compound 126, 2-(3,5-dimethyl-2-(methyl(2-morpholinoethyl)amino)benzyl)benzonitrile], less than 50 nM. In the case of `Cc1ccc(OCCN2CCC(O)CC2)c(Cc2ccccc2)c1` [compound 89, 1-(2-(2-benzyl-4-methylphenoxy)ethyl)piperidin-4-ol], the EC50 lay within 1000 to 35000 nM.

As for `Cc1ccc(OCCN2CCC(CO)CC2)c(Cc2ccccc2)c1` [compound 40, (1-(2-(2-benzyl-4-methylphenoxy)ethyl)piperidin-4-yl)methanol], the concentration giving a half-maximal response (EC50) lay in the range of 1000 to 35000 nM.

`Cc1cc(C)c(OC(C)CN2CCN(C)CC2)c(Cc2ccccc2C#N)c1` (stereo not shown) [compound 116, 2-(3,5-dimethyl-2-((1-(4-methylpiperazin-1-yl)propan-2-yl)oxy)benzyl)benzonitrile hydrochloride]: the EC50 was 50 to 300 nM. `Cc1cc(C)c(OCCN2CCOCC2)cc1Cc1c(F)c(F)c(F)c(F)c1F` [compound 155, 4-(2-(2,4-dimethyl-5-((perfluorophenyl)methyl)phenoxy)ethyl)morpholine]: the EC50 lay within 1000 to 35000 nM.

For the compound `Cc1ccc(OCCN2CCN(C)CC2)c(Cc2ccc(Cl)s2)c1` [compound 53, 1-(2-(2-((5-chlorothiophen-2-yl)methyl)-4-methylphenoxy)ethyl)-4-methylpiperazine], the EC50 lay within 1000 to 35000 nM. As for `Cc1cccc(Cc2cc(C)ccc2OCCN2CCN(C)CC2)c1` [compound 104, 1-methyl-4-(2-(4-methyl-2-(3-methylbenzyl)phenoxy)ethyl)piperazine], the EC50 lay in the range of 1000 to 35000 nM.

For the compound `Cc1cc(C)c(OCCN2CCN(C)CC2)c(Cc2ccccc2C(F)(F)F)c1` [compound 62, 1-(2-(2,4-dimethyl-6-(2-(trifluoromethyl)benzyl)phenoxy)ethyl)-4-methylpiperazine], the EC50 is 300 to 1000 nM.

On to `CC1CCC(OCCN2CCN(C)CC2)C(Cc2ccccc2)C1` (stereo not shown) [compound 51, 1-(2-((2-benzyl-4-methylcyclohexyl)oxy)ethyl)-4-methylpiperazine], for which the EC50 lay within 1000 to 35000 nM.

On to `Cc1ccc(OCCN2CCN(C)CC2)c(Cc2ccco2)c1` [compound 61, 1-(2-(2-(furan-2-ylmethyl)-4-methylphenoxy)ethyl)-4-methylpiperazine], for which the EC50 was 1000 to 35000 nM. Regarding `Cc1cc(C)c(OC(C)CN2CCOCC2)c(Cc2c(F)cccc2F)c1` (stereo not shown) [compound 150, 4-(2-(2-(2,6-difluorobenzyl)-4,6-dimethylphenoxy)propyl)morpholine], the EC50 lay within 300 to 1000 nM. Take `Cc1ccc(CC(=O)CN2CCN(C)CC2)c(Cc2ccccc2)c1` [compound 98, 1-(2-benzyl-4-methylphenyl)-3-(4-methylpiperazin-1-yl)propan-2-one]: the EC50 was in the range of 1000 to 35000 nM. The value for `Cc1cc(C)c(OCCN2CCN(C)CC2)c(Cc2ccccc2I)c1` [compound 57, 1-(2-(2-(2-iodobenzyl)-4,6-dimethylphenoxy)ethyl)-4-methylpiperazine] was 300 to 1000 nM; that for `Cc1ccc(OCCN2CCNCC2)c(Cc2ccccc2)c1` [compound 88, 1-(2-(2-benzyl-4-methylphenoxy)ethyl)piperazine] was 1000 to 35000 nM. As to `Cc1ccc(OCC(C)N2CCOCC2)c(Cc2ccccc2C#N)c1` (stereo not shown) [compound 132, 2-(5-methyl-2-(2-morpholinopropoxy)benzyl)benzonitrile], the EC50 was 300 to 1000 nM. On to `Cc1ccc(OC(C)CN2CCN(C)CC2)c(Cc2ccccc2)c1` (stereo not shown) [compound 91, 1-(2-(2-benzyl-4-methylphenoxy)propyl)-4-methylpiperazine hydrochloride], for which the EC50 lay within 300 to 1000 nM. As for `Cc1ccc(OCCCN2CCN(C)CC2)c(Cc2ccccc2)c1` [compound 99, 1-(3-(2-benzyl-4-methylphenoxy)propyl)-4-methylpiperazine hydrochloride], the EC50 is 1000 to 35000 nM. Turning to `Cc1ccc(CC(O)CN2CCN(C)CC2)c(Cc2ccccc2)c1` (stereo not shown) [compound 97, 1-(2-benzyl-4-methylphenyl)-3-(4-methylpiperazin-1-yl)propan-2-ol], the EC50 is 300 to 1000 nM.

Consider `Cc1ccc(N(C)CCN2CCOCC2)c(Cc2ccccc2F)c1` [compound 114, 2-(2-fluorobenzyl)-N,4-dimethyl-N-(2-morpholinoethyl)aniline], for which the EC50 lay within 50 to 300 nM. Turning to `Cc1ccc(OCCN2CCN(C)CC2)c(C(O)c2ccccc2)c1` (stereo not shown) [compound 41, (5-methyl-2-(2-(4-methylpiperazin-1-yl)ethoxy)phenyl)(phenyl)methanol], the half-maximal effective concentration (EC50) is 1000 to 35000 nM.

For orientation: EC50 means the concentration needed to bring the measured effect to its halfway point.
